Experimental data as given in US11274101B2, “Heterocyclic compound” (Takeda Pharmaceutical Company Limited, priority 2017, dated 2022).

Biological target: T1, His-hMAGL (recombinant polyhistidine tagged human MAGL protein) (Homo sapiens, UniProt Q99685)
T1 construct: made in house; host or cells: E. coli BL21(DE3)
T1 sequence (Q99685 1-303): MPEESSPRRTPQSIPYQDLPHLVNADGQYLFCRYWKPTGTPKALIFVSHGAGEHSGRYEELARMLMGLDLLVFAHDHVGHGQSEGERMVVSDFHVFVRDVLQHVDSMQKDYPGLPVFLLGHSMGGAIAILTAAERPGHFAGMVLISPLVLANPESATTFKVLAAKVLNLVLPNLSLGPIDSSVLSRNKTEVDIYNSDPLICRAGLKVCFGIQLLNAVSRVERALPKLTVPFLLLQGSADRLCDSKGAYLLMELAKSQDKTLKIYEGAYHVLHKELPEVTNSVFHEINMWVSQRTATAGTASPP
Test: Measurement of MAGL inhibitory activity (arachidonic acid production from 2-arachidonylglycerol, RapidFire-mass spectrometry)
Assay type: biochemical
Conditions: test compound 10 μM; MAGL inhibitory rate
Method: The His-hMAGL obtained above was diluted with enzyme reaction buffer (10 mM Tris-HCl, pH 7.5, 1 mM EDTA, 0.025 (w/v) % Triton X-100, 0.01% Bovine serum albumin) to a concentration of 7.5 ng/mL. To each well of a 384 well assay plate (Greiner 781280) was added a solution (5 μL) of a test compound dissolved in dimethyl sulfoxide (DMSO), which was diluted with the above-mentioned enzyme reaction buffer, then His-hMAGL solution (5 μL) diluted to a concentration of 7.5 ng/mL was added, and the mixture was incubated at room temperature for 60 min. Thereafter, to each well was added 5 μL of 150 μM 2-arachidonylglycerol (Tocris Bioscience), and the mixture was incubated at room temperature for 10 min. Then, 10 μL of 2% formic acid (Wako Pure Chemical Industries, Ltd.) was added to stop the reaction. Furthermore, acetonitrile (50 μL) containing 3 μM arachidonic acid-d8 (Cayman Chemical Company) was added and the mixture was stirred.
The amount of arachidonic acid in the obtained enzyme reaction mixture was calculated by measuring by RapidFire-mass spectrometry and correcting by the amount of arachidonic acid-d8. High Throughput online solid phase extraction was performed using RapidFire 300™ system (Agilent Technologies, Inc.). Samples were loaded on SPE C4 cartridge (Agilent Technologies, Inc.) and desalted with 0.2 (v/v) % acetic acid (Wako Pure Chemical Industries, Ltd.) in ultrapure water/acetonitrile (70/30, v/v) at a flow rate of 1.5 mL/min, eluted at a flow rate of 0.5 mL/min with 0.2 (v/v) % acetic acid dissolved in acetonitrile/ultrapure water (90/10, v/v), and injected into the mass spectrometry part. The injection needle was washed with ultrapure water (500 millisecond) and acetonitrile (500 millisecond) to minimize carry-over. The suction time (injection loop 5 μL), load/cleansing time, elution time and re-equilibration time were adjusted to 300, 3000, 4250 and 1000 milliseconds, respectively, and the total cycle time was adjusted to about 10.0 seconds. The RapidFire300 system was controlled by RapidFire UI software version 3.6 (Agilent Technologies, Inc.).
The mass spectrometry of the resultant product was performed using API4000™ triple quadrupole mass spectrometer (AB SCIEX) equipped with an electrospray ion sauce (TurboIon Spray™) in a negative selected reaction monitoring (SRM) mode. The conditions of SRM are shown below. The parameters of the instrument were optimized as follows: capillary temperature 600° C., ion spray voltage −4.5 kV, collision gas 8, curtain gas 15 psi, ion source gas 1 60 psi, ion source gas 2 60 psi. The mass spectrometer was controlled by Analyst™ software version 1.5.1 (AB SCIEX). The peak area integration was analyzed using RapidFire integrator software version 3.6 (Agilent Technologies, Inc.).
MAGL inhibitory rate (%) was calculated according to the following calculation formula. (1-(arachidonic acid production amount of test compound addition group−arachidonic acid production amount of enzyme-free group)+(arachidonic acid production amount of test compound-free group−arachidonic acid production amount of enzyme-free group))×100

SMILES | inhibition at 10 µM [%]
O=C1NC2(CO1)CN(C(=O)O[C@H]1C[C@@H](Oc3ccc(C(F)(F)F)cc3F)C1)C2 [Example 1, cis-3-(2-fluoro-4-(trifluoromethyl)phenoxy)cyclobutyl 6-oxo-7-oxa-2,5-diazaspiro[3.4]octane-2-carboxylate] | 100
O=C1NC2(CO1)CN(C(=O)O[C@H]1C[C@@H](OCc3ccccc3)C1)C2 [Example 2, cis-3-(benzyloxy)cyclobutyl 6-oxo-7-oxa-2,5-diazaspiro[3.4]octane-2-carboxylate] | 101
Cc1ccc(CO[C@H]2C[C@@H](OC(=O)N3CC4(COC(=O)N4)C3)C2)cc1Cl [Example 3, cis-3-((3-chloro-4-methylbenzyl)oxy)cyclobutyl 6-oxo-7-oxa-2,5-diazaspiro[3.4]octane-2-carboxylate] | 101
Cc1cc(CO[C@H]2C[C@@H](OC(=O)N3CC4(COC(=O)N4)C3)C2)ccc1Cl [Example 4, cis-3-((4-chloro-3-methylbenzyl)oxy)cyclobutyl 6-oxo-7-oxa-2,5-diazaspiro[3.4]octane-2-carboxylate] | 100
O=C1NC2(CO1)CN(C(=O)O[C@H]1C[C@@H](OCc3c(F)cc(F)cc3F)C1)C2 [Example 8, cis-3-((2,4,6-trifluorobenzyl)oxy)cyclobutyl 6-oxo-7-oxa-2,5-diazaspiro[3.4]octane-2-carboxylate] | 100
O=C1NC2(CO1)CN(C(=O)O[C@H]1C[C@@H](OCc3ccc(Cl)c(Cl)c3)C1)C2 [Example 9, cis-3-((3,4-dichlorobenzyl)oxy)cyclobutyl 6-oxo-7-oxa-2,5-diazaspiro[3.4]octane-2-carboxylate] | 99
O=C1NC2(CO1)CN(C(=O)O[C@H]1C[C@@H](OCc3ccc(C(F)(F)F)cc3F)C1)C2 [Example 10, cis-3-((2-fluoro-4-(trifluoromethyl)benzyl)oxy)cyclobutyl 6-oxo-7-oxa-2,5-diazaspiro[3.4]octane-2-carboxylate] | 99
Cc1ccc(OC[C@H]2C[C@@H](OC(=O)N3CC4(COC(=O)N4)C3)C2)c(F)c1 [Example 12, cis-3-((2-fluoro-4-methylphenoxy)methyl)cyclobutyl 6-oxo-7-oxa-2,5-diazaspiro[3.4]octane-2-carboxylate] | 101
O=C1NC2(CO1)CN(C(=O)O[C@H]1C[C@@H](COc3ccc(F)cc3Cl)C1)C2 [Example 14, cis-3-((2-chloro-4-fluorophenoxy)methyl)cyclobutyl 6-oxo-7-oxa-2,5-diazaspiro[3.4]octane-2-carboxylate] | 98
O=C1NC2(CO1)CN(C(=O)O[C@H]1C[C@@H](COc3ccc(C(F)(F)F)cc3Cl)C1)C2 [Example 20, cis-3-((2-chloro-4-(trifluoromethyl)phenoxy)methyl)cyclobutyl 6-oxo-7-oxa-2,5-diazaspiro[3.4]octane-2-carboxylate] | 100
O=C1NC2(CO1)CN(C(=O)O[C@H]1C[C@H](COc3ccc(F)c(F)c3F)C1)C2 [Example 21, trans-3-((2,3,4-trifluorophenoxy)methyl)cyclobutyl 6-oxo-7-oxa-2,5-diazaspiro[3.4]octane-2-carboxylate] | 100
O=C1NC2(CO1)CN(C(=O)O[C@H]1C[C@H](COc3ccc(C(F)(F)F)cc3F)C1)C2 [Example 22, trans-3-((2-fluoro-4-(trifluoromethyl)phenoxy)methyl)cyclobutyl 6-oxo-7-oxa-2,5-diazaspiro[3.4]octane-2-carboxylate] | 103
O=C1NC2(CO1)CN(C(=O)OC[C@H]1C[C@@H](Oc3ccc(C(F)(F)F)cc3Cl)C1)C2 [Example 26, (cis-3-(2-chloro-4-(trifluoromethyl)phenoxy)cyclobutyl)methyl 6-oxo-7-oxa-2,5-diazaspiro[3.4]octane-2-carboxylate] | 100
O=C1NC2(CO1)CN(C(=O)OC[C@H]1C[C@H](Oc3ccc(C(F)(F)F)cc3Cl)C1)C2 [Example 27, (trans-3-(2-chloro-4-(trifluoromethyl)phenoxy)cyclobutyl)methyl 6-oxo-7-oxa-2,5-diazaspiro[3.4]octane-2-carboxylate] | 100

The next lines start with the values.

inhibition at 10 µM [%] | SMILES
99 | Cc1ccc(CO[C@H]2C[C@@H](OC(=O)N3CC4(COC(=O)N4)C3)C2)c(F)c1F [Example 5, cis-3-((2,3-difluoro-4-methylbenzyl)oxy)cyclobutyl 6-oxo-7-oxa-2,5-diazaspiro[3.4]octane-2-carboxylate]
101 | O=C1NC2(CO1)CN(C(=O)O[C@H]1C[C@@H](OCc3ccc(F)c(F)c3F)C1)C2 [Example 6, cis-3-((2,3,4-trifluorobenzyl)oxy)cyclobutyl 6-oxo-7-oxa-2,5-diazaspiro[3.4]octane-2-carboxylate]
100 | O=C1NC2(CO1)CN(C(=O)O[C@H]1C[C@@H](OCc3cc(F)c(F)cc3F)C1)C2 [Example 7, cis-3-((2,4,5-trifluorobenzyl)oxy)cyclobutyl 6-oxo-7-oxa-2,5-diazaspiro[3.4]octane-2-carboxylate]
100 | O=C1NC2(CO1)CN(C(=O)O[C@H]1C[C@@H](OCc3ccc(C(F)(F)F)c(Cl)c3)C1)C2 [Example 11, cis-3-((3-chloro-4-(trifluoromethyl)benzyl)oxy)cyclobutyl 6-oxo-7-oxa-2,5-diazaspiro[3.4]octane-2-carboxylate]
102 | Cc1cc(F)ccc1OC[C@H]1C[C@@H](OC(=O)N2CC3(COC(=O)N3)C2)C1 [Example 13, cis-3-((4-fluoro-2-methylphenoxy)methyl)cyclobutyl 6-oxo-7-oxa-2,5-diazaspiro[3.4]octane-2-carboxylate]
103 | O=C1NC2(CO1)CN(C(=O)O[C@H]1C[C@@H](COc3ccc(Cl)cc3F)C1)C2 [Example 15, cis-3-((4-chloro-2-fluorophenoxy)methyl)cyclobutyl 6-oxo-7-oxa-2,5-diazaspiro[3.4]octane-2-carboxylate]
101 | O=C1NC2(CO1)CN(C(=O)O[C@H]1C[C@@H](COc3cc(F)c(F)cc3F)C1)C2 [Example 17, cis-3-((2,4,5-trifluorophenoxy)methyl)cyclobutyl 6-oxo-7-oxa-2,5-diazaspiro[3.4]octane-2-carboxylate]
98 | O=C1NC2(CO1)CN(C(=O)O[C@H]1C[C@@H](COc3ccc(C(F)(F)F)cc3F)C1)C2 [Example 19, cis-3-((2-fluoro-4-(trifluoromethyl)phenoxy)methyl)cyclobutyl 6-oxo-7-oxa-2,5-diazaspiro[3.4]octane-2-carboxylate]
100 | O=C1NC2(CO1)CN(C(=O)OC[C@H]1C[C@@H](Oc3c(F)cc(F)cc3F)C1)C2 [Example 23, (cis-3-(2,4,6-trifluorophenoxy)cyclobutyl)methyl 6-oxo-7-oxa-2,5-diazaspiro[3.4]octane-2-carboxylate]
103 | O=C1NC2(CO1)CN(C(=O)OC[C@H]1C[C@@H](Oc3ccc(C(F)(F)F)cc3F)C1)C2 [Example 24, (cis-3-(2-fluoro-4-(trifluoromethyl)phenoxy)cyclobutyl)methyl 6-oxo-7-oxa-2,5-diazaspiro[3.4]octane-2-carboxylate]
100 | O=C1NC2(CO1)CN(C(=O)OC[C@H]1C[C@H](Oc3c(F)cc(F)cc3F)C1)C2 [Example 25, (trans-3-(2,4,6-trifluorophenoxy)cyclobutyl)methyl 6-oxo-7-oxa-2,5-diazaspiro[3.4]octane-2-carboxylate]
100 | Cc1ccc(COC[C@H]2C[C@@H](OC(=O)N3CC4(COC(=O)N4)C3)C2)cc1Cl [Example 28, cis-3-(((3-chloro-4-methylbenzyl)oxy)methyl)cyclobutyl 6-oxo-7-oxa-2,5-diazaspiro[3.4]octane-2-carboxylate]
